Measurements reported in patent US12370161B2, “Composition for treating atopy or pruritus comprising N-acetyl or N-acyl amino acid” (STEMDR INC., priority 2017, dated 2025).

System: atopic dermatitis-induced Balb/c mouse
Experiment: SCORAD clinical skin score, DNFB-induced atopic dermatitis in Balb/c mouse
Type: in vivo
Design: key to Mouse 1 Sum / Mean (of Sum, SCORAD) / Mouse 2 Sum / Mouse 3 Sum: sum of symptom grades, each 0 (none) to 3 (severe)
Conditions: DNFB Balb/c; for Mouse 1 Erythema: 0.1% in PBS, 200 μL on back skin daily day 22-28, grade 0-3 (0 no symptom, 1 mild, 2 moderate, 3 severe); for Mouse 1 Abrasion / Mouse 1 Dryness / Mouse 1 Edema / Mouse 1 Eschar / Mouse 1 Lichenification / Mouse 1 Sum / Mouse 2 Abrasion / Mouse 2 Dryness / Mouse 2 Edema / Mouse 2 Erythema / Mouse 2 Eschar / Mouse 2 Lichenification / Mouse 2 Sum / Mouse 3 Abrasion / Mouse 3 Dryness / Mouse 3 Edema / Mouse 3 Erythema / Mouse 3 Eschar / Mouse 3 Lichenification / Mouse 3 Sum / Mean (of Sum, SCORAD): 0.1% topical day 22-28; for Mouse 1 Abrasion / Mouse 1 Dryness / Mouse 1 Edema / Mouse 1 Eschar / Mouse 1 Lichenification / Mouse 2 Abrasion / Mouse 2 Dryness / Mouse 2 Edema / Mouse 2 Erythema / Mouse 2 Eschar / Mouse 2 Lichenification / Mouse 3 Abrasion / Mouse 3 Dryness / Mouse 3 Edema / Mouse 3 Erythema / Mouse 3 Eschar / Mouse 3 Lichenification: grade 0-3; for Mouse 1 Sum / Mouse 2 Sum / Mouse 3 Sum: overall dermatitis score, sum of individual scores; for Mean (of Sum, SCORAD): mean of 3 mice
Method: In order to induce atopy-like dermatitis in Balb/c mice, DNFB sensitization was induced by applying 100 μL of 0.35% 2,4-dinitrofluorobenzene (DNFB) (Sigma, USA) in acetone/olive oil (3:1) on the shaved back skin of the mice. Then, dermatitis was induced by applying 100 μL of 0.25% DNFB on days 6, 9, 12, 15, 18 21, 24 and 27 on the shaved back skin. Control mice were treated with a vehicle of the same volume (FIG. 1A).
After dissolving an N-acetyl or N-acylamino acid in phosphate-buffered saline to 0.1%, 200 μL of the solution was applied on the back skin of the mice every day, from day 22 until day 28 for the Balb/c atopic dermatitis model, and from day 15 until day 21 for the Nc/Nga atopic dermatitis model. When the N-acetyl or N-acylamino acid was treated together with DNFB, they were treated with 12-hour intervals in order to avoid direct reaction between the DNFB and the N-acetyl or N-acylamino acid. A non-treated group and a 2,4-dinitrofluorobenzene (DNFB) group were treated with phosphate-buffered saline of the same volume (FIGS. 1A-1B). As the N-acetylamino acid, products purchased from Sigma-Aldrich (USA), MP scientific (USA), TCI (Tokyo Chemical Industry, Japan), Santacruz (USA), etc. were used without purification.
The degree of skin soothing and the severity of atopic dermatitis were evaluated macroscopically according to the previously established SCORAD (SCORing Atopic Dermatitis) method (Oranje et al., 2007). The degree of symptoms such as edema, erythema, eschar, dryness, abrasion, lichenification, etc. was graded from 0 to 3 (0, no symptom; 1, mild; 2, moderate; 3, severe). The overall dermatitis score was determined from the sum of all individual scores (Table 1). The assessment was performed by an investigator who was blind to the grouping of the mice.

Row | Compound | Mouse 1 Erythema | Mouse 1 Abrasion | Mouse 1 Dryness | Mouse 1 Edema | Mouse 1 Eschar | Mouse 1 Lichenification | Mouse 1 Sum | Mouse 2 Abrasion | Mouse 2 Dryness | Mouse 2 Edema | Mouse 2 Erythema | Mouse 2 Eschar | Mouse 2 Lichenification | Mouse 2 Sum | Mouse 3 Abrasion | Mouse 3 Dryness | Mouse 3 Edema | Mouse 3 Erythema | Mouse 3 Eschar | Mouse 3 Lichenification | further results
1 | CC(=O)N[C@@H](Cc1ccc(O)cc1)C(=O)O [N-acetyl-L-tyrosme] | 3 | 2 | 3 | 2 | 3 | 2 | 15 | 2 | 3 | 2 | 3 | 2 | 3 | 15 | 2 | 2 | 2 | 3 | 2 | 2 | Mouse 3 Sum: 13; Mean (of Sum, SCORAD): 14.33
2 | CC(=O)N[C@@H](Cc1c[nH]cn1)C(=O)O [N-acetyl-L-histidine] | 3 | 2 | 3 | 2 | 2 | 3 | 15 | 2 | 3 | 2 | 3 | 2 | 3 | 15 | 2 | 3 | 2 | 3 | 2 | 2 | Mouse 3 Sum: 14; Mean (of Sum, SCORAD): 14.67
3 | CC[C@H](C)[C@H](NC(C)=O)C(=O)O [N-acetyl-L-isoleucine] | 3 | 1 | 3 | 2 | 3 | 3 | 15 | 2 | 3 | 2 | 2 | 2 | 3 | 14 | 1 | 3 | 2 | 3 | 2 | 3 | Mouse 3 Sum: 14; Mean (of Sum, SCORAD): 14.33
4 | CC(=O)N[C@@H](CCC(=O)O)C(=O)O [N-acetyl-L-glutamic acid] | 3 | 2 | 2 | 2 | 2 | 3 | 14 | 2 | 3 | 2 | 2 | 2 | 2 | 13 | 2 | 3 | 2 | 1 | 2 | 2 | Mouse 3 Sum: 12; Mean (of Sum, SCORAD): 13
5 | CC(=O)N[C@@H](CC(N)=O)C(=O)O [N-acetyl-L-asparagine] | 3 | 3 | 3 | 2 | 2 | 2 | 15 | 3 | 2 | 2 | 2 | 3 | 3 | 14 | 2 | 3 | 3 | 3 | 3 | 2 | Mouse 3 Sum: 16; Mean (of Sum, SCORAD): 15
6 | CC(=O)N[C@@H](CO)C(=O)O [N-acetyl-L-serine] | 3 | 2 | 2 | 2 | 2 | 2 | 13 | 2 | 3 | 2 | 3 | 2 | 3 | 15 | 2 | 3 | 2 | 3 | 2 | 2 | Mouse 3 Sum: 14; Mean (of Sum, SCORAD): 14
7 | CC(=O)NCC(=O)O [N-acetyl-L-glycine] | 3 | 2 | 2 | 2 | 2 | 3 | 14 | 2 | 3 | 2 | 3 | 2 | 3 | 15 | 2 | 3 | 2 | 3 | 2 | 3 | Mouse 3 Sum: 15; Mean (of Sum, SCORAD): 14.67
8 | CC(=O)N[C@@H](Cc1ccccc1)C(=O)O [N-acetyl-L-phenylalanme] | 3 | 2 | 3 | 2 | 1 | 2 | 13 | 2 | 3 | 2 | 3 | 2 | 3 | 15 | 1 | 3 | 2 | 3 | 2 | 3 | Mouse 3 Sum: 14; Mean (of Sum, SCORAD): 14
9 | CC(=O)N[C@H](C(=O)O)C(C)C [N-acetyl-L-valine] | 3 | 2 | 2 | 2 | 2 | 3 | 14 | 2 | 2 | 2 | 2 | 2 | 3 | 13 | 1 | 3 | 2 | 2 | 2 | 2 | Mouse 3 Sum: 12; Mean (of Sum, SCORAD): 13
10 | CC(=O)N[C@@H](CCC(N)=O)C(=O)O [N-acetyl-L-glutamine] | 2 | 2 | 2 | 2 | 2 | 3 | 13 | 2 | 2 | 2 | 2 | 2 | 2 | 12 | 2 | 2 | 2 | 2 | 2 | 1 | Mouse 3 Sum: 11; Mean (of Sum, SCORAD): 12
11 | CC(=O)N[C@@H](CC(=O)O)C(=O)O [N-acetyl-L-aspartic acid] | 3 | 2 | 2 | 2 | 2 | 2 | 13 | 2 | 3 | 2 | 3 | 2 | 2 | 14 | 2 | 2 | 2 | 3 | 2 | 1 | Mouse 3 Sum: 12; Mean (of Sum, SCORAD): 13
